# Source: patent publication US8679832B2, “Detection of protein translocation by beta-galactosidase reporter fragment complementation” (The Board of Trustees of the Leland Stanford Junior …, priority 2004, dated 2014)
# Read-outs that look alike come from different tables or passages of the source.
# Columns and labels:
# C1A domain = target: T1, C1A domain (Homo sapiens, UniProt P05129); details: C1A-GFP, response to PMA, reported; cited from earlier work
# T1 construct: The translocation of the C1A domain in response to PMA stimulation has been extensively characterized by fusion to GFP
# C1A domain from PKCγ = target: T2, C1A domain from PKCγ (Homo sapiens, UniProt P05129); assay: Plasma membrane translocation assay: C1A domain of PKCγ fused to GFP-α mutants, tEGFR-ω in NIH 3T3 cells, β-galactosidase complementation; assay type: cell-based
# T2 construct: the C1A domain from PKCγ was fused to four of the GFP-α point mutants; β-galactosidase α peptide carrying H31R, E41Q, N39D or N39Q (β-gal numbering; the mutation lies in the tag, not in PKCγ); expressed in transfected cells; host or cells: NIH 3T3 cells expressing tEGFR-ω
# Excerpt: Creation of a plasma membrane translocation assay required expression of the ω fragment at the membrane which was achieved using the tEGFR-ω construct. When the target protein-α fusion move from the cytosol to the membrane, the local increased concentration of a peptide should drive complementation as illustrated in FIG. 4B. To determine which of the mutants would work best in this type of assay the C1A domain from PKCγ was fused to four of the GFP-α point mutants that complemented to varying degrees, H31R, E41Q, N39D, and N39Q. […] The ω fragment was tethered to the plasma membrane using the extracellular and transmembrane regions of the EGFR. Four of the mutants were fused to the C1A domain of PKCγ and co-expressed with the tEGFR. Their responses to 1 μM PMA for 20 min were expressed as a fold induction over background. The C1A domain efficiently translocated to the plasma membrane when exposed to phorbol esters such as PMA (FIG. 4C). The fusion proteins were expressed in NIH 3T3 cells expressing the tEGFR-ω, and assayed for increased complementation in the presence of PMA for 30 min.
# The translocation of the C1A domain in response to PMA stimulation has been extensively characterized by fusion to GFP. The largest increase in fluorescence at the plasma membrane in response to PMA was reported to be 70% with the lowest dose of PMA detected using these methods being between 10 and 100 nM. […] Importantly, the requirement of the co fragment for complementation ensured that enzyme activity was only generated where the co-fragment was localized. Thus, the assay measured increases in protein concentration at a specific location in the cell.
# glucocorticoid receptor = glucocorticoid receptor (Homo sapiens, UniProt P04150); details: 30 min of treatment
# Chain of glucocorticoid receptor (P04150 whole entry, species assumed, the tested form may be a part): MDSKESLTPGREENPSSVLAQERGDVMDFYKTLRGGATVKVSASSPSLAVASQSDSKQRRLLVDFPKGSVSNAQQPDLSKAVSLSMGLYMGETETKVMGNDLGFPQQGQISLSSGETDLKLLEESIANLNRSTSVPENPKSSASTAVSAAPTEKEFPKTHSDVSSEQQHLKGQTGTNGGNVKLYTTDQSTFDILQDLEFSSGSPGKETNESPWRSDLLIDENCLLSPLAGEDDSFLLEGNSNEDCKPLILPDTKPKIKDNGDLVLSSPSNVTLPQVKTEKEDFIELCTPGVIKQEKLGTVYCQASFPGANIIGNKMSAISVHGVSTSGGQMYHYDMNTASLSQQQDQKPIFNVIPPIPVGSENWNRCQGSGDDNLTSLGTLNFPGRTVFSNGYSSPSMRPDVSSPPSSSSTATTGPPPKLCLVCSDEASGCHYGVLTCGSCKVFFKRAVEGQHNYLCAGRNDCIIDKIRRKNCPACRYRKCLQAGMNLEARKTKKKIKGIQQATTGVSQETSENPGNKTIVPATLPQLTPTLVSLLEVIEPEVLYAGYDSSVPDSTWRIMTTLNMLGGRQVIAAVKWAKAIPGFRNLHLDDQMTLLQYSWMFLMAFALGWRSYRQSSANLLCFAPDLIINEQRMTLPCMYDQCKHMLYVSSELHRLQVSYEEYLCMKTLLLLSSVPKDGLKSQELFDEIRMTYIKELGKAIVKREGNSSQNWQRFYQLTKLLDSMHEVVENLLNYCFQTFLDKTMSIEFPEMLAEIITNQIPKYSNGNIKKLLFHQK
# Excerpt: To test the applicability of the system to a physiological translocation event the glucocoticoid receptor was fused to the amino-terminus of the GFP-α fusion. The glucocoticoid receptor is a nuclear steroid hormone receptor that undergoes a robust nuclear translocation in response to treatment with various hormones including dexamethasone. This construct was stably introduced into both the co-NLS and tEGFR-ω cell lines then assayed for changes in β-galactosidase activity upon treatment of the cells with dexamethasone using the luminescent β-galactosidase substrate.
# Cell lines shown in FIG. 3 A were treated with varying concentrations of dexamethasone and assayed over time. […] The GR-α cell lines were treated with 1 μM dexamethasone (red) for 3 hours then stained with the luorescent β-galactosidase DDAO substrate and analyzed by low cytometry.
# [1] = test system: Crm1 mediated nuclear export; assay: Nuclear translocation gain of signal assay: NES-GFP-α-NLS co-expressed with ω-NLS, β-galactosidase complementation, luminescent substrate; assay type: cell-based, mouse; details: leptomycin B for 2 hours, C2C12 myoblasts
# Excerpt: In order to utilize a complementation as a method of quantitatively assessing nuclear translocation events, two systems were designed that are distinct in the localization of the ω-fragment. FIG. 2A is a schematic showing the design of the nuclear translocation assay. In the let panel, the ω fragment is localized to the nucleus with a nuclear localization signal (NLS) and the cytosolic protein of interest is fused to the minimal α peptide. Upon stimulation the α fusion moves to the nucleus and complements the co, increasing β-galactosidase activity. In the right panel, the co fragment is tethered to the plasma membrane using the extracellular and transmembrane regions of EGFR. The cytosolic α-fusion complements spontaneously until stimulation when it translocates to the nucleus which results in a loss of enzyme activity.
# The gain of signal assay (FIG. 2A left panel) localized the ω to the nucleus through fusion to a triplet SV40 nuclear localization signal (NLS). Thus, an increase in β-galactosidase activity should be observed when the target protein-α fusion moves from the cytosol to the nucleus. The loss of signal assay (FIG. 2 A right panel) localized the ω-fragment to the plasma membrane through fusion to the extracellular and transmembrane regions of the EGF receptor (tEGFR). […]
# PH domain of AKT = assay: AKT PH domain plasma membrane translocation: AKT-GFP-α in 3T3 fibroblasts with tEGFR-ω, luminescent β-galactosidase assay, 96-well; assay type: cell-based; details: 50 ng/ml PDGF, insulin, or sorbitol; 3T3 cells; maximal over time course
# Protocol: To test whether the system was robust enough to monitor translocation events in response to physiologically relevant stimuli, this system was applied to the translocation of the PH domain of AKT. […] The PH domain of AKT was fused to the GFP-α chimera and expressed in 3T3 fibroblasts harboring the tEGFR-ω protein. […] The cells were stimulated under various conditions, and the translocation of the PH domain was assayed in 96-well dishes by a luminescent measure of β-galactosidase activity.
compound,measurement,setting,value
CCCCCCCCCCCCCC(=O)O[C@@H]1[C@@H](C)[C@@]2(O)[C@@H](C=C(CO)C[C@]3(O)C(=O)C(C)=C[C@@H]23)[C@@H]2C(C)(C)[C@]12OC(C)=O [PMA],largest increase in fluorescence at the plasma membrane,C1A domain,70%
same,increase in signal,C1A domain from PKCγ; 800 nM PMA (saturating),1000%
same,saturating PMA concentration,C1A domain from PKCγ; C1A domain membrane translocation assay,800 nM
same,increases in enzyme activity in the presence of PMA,"C1A domain from PKCγ; β-galactosidase complementation, H31R",700-1000%
C[C@@H]1C[C@H]2[C@@H]3CCC4=CC(=O)C=C[C@]4(C)[C@@]3(F)[C@@H](O)C[C@]2(C)[C@@]1(O)C(=O)CO [dexamethasone],difference in β-galactosidase activity,glucocorticoid receptor; gain of signal,100%
same,difference in β-galactosidase activity,glucocorticoid receptor; loss of signal,25%
CCC(=C/[C@H](C)C/C=C/C(C)=C/[C@@H](C)C(=O)[C@@H](C)[C@H](O)[C@@H](C)C/C(C)=C/C(=O)O)/C=C/[C@@H]1OC(=O)C=C[C@@H]1C [leptomycin B],increase in β-galactosidase activity,[1],3.5 fold
OC[C@@H](O)[C@@H](O)[C@H](O)[C@@H](O)CO [sorbitol],increase in β-galactosidase activity,PH domain of AKT,8 fold
"H31R: α peptide of β-galactosidase with H31R mutation, low affinity (MGVITDSLAVVLQRRDWENPGVTQLNRLAARPPFASWRNSEEARTDRPSQQL; E. coli; PEPTIDE (1)..(52) alpha peptide (H31R))",induction of β-galactosidase activity in the presence of PMA,"C1A domain from PKCγ; C1A-GFP-α mutant, 1 μM PMA, NIH 3T3 tEGFR-ω",7 fold
platelet-derived growth factor [PDGF],increase in β-galactosidase activity,PH domain of AKT,5 fold
wt peptide: wild type α peptide of β-galactosidase (MGVITDSLAVVLQRRDWENPGVTQLNRLAAHPPFASWRNSEEARTDRPSQQL; E. coli; PEPTIDE (1)..(52) alpha peptide (wildtype)),increase in β-galactosidase activity in the presence of PMA,"C1A domain from PKCγ; C1A-GFP-α wt peptide, PMA, NIH 3T3 tEGFR-ω",< 10%
